{
  "source": "patent US20080132534A1",
  "about": "“Pharmaceutical composition comprising a macrolide immunomodulator” (priority 2003, published 2008)",
  "origin": "cited, not measured here",
  "tested_on": "allogeneic kidney transplantation",
  "conditions": "rat, oral administration, suppression of systemic immune response",
  "data": [
    {"smiles": "C=CC[C@@H]1/C=C(\\C)C[C@H](C)C[C@H](OC)[C@H]2O[C@@](O)(C(=O)C(=O)N3CCCC[C@H]3C(=O)O[C@H](/C(C)=C/[C@@H]3CC[C@@H](O)[C@H](OC)C3)[C@H](C)[C@@H](O)CC1=O)[C@H](C)C[C@@H]2OC", "note": "[tacrolimus]", "values": [
      {"measurement": "minimum effective dose (MED)", "result": 14, "unit": "mg/kg"}
    ]}
  ]
}
